Values after ≈ are worked out from the molar mass of the structure shown.

The logP is a log measure of how a compound divides between an organic and an aqueous phase. A lower logP goes with lower lipophilicity. One may read the solubility as the concentration that dissolves in the medium under given conditions.

Settings in one data set: not given
The compound `ClCC(Cl)(Cl)CCl` gave a logP of 2.72. `Cc1ccc([N+](=O)[O-])cc1O` showed a logP of 2.47. Same read-out and setting: the result for `C=Cc1ccccn1` reads 1.54.

Take `Oc1ccc(Cc2ccccc2)cc1`: the logP came to 3.47.

Still in this data set, the particulars now being: 20 °C.
`COC(C)CCOC(C)=O` (configuration not stated): the solubility was 31500 µM (≈ 4600 µg/mL).

Staying with this data set, now noted: 25 °C.
In the case of `CCNc1cccc2ccccc12`, the solubility was 642 µM (≈ 110 µg/mL). `Oc1c(Cl)cccc1Cl`: the solubility is 11700 µM (≈ 1900 µg/mL). On the same count and under the same terms, with `CC(CCl)OP(=O)(OC(C)CCl)OC(C)CCl` (configuration not stated) the figure was 3660 µM (≈ 1200 µg/mL); with `O=C(OOC(=O)c1ccccc1)c1ccccc1`, 37.6 µM (≈ 9.1 µg/mL). The compound `CCCCCC(=O)CCCCC` returned a solubility of 294 µM (≈ 50 µg/mL). The same measure, in the same setting: the result for `CCCCCCCCN(CCCCCCCC)CCCCCCCC` reads 0.141 µM (≈ 0.05 µg/mL); that for `c1ccc(Nc2cccc3ccccc23)cc1`, 274 µM (≈ 60 µg/mL); that for `O=C(O)c1ccc2ccccc2c1`, 273 µM (≈ 47 µg/mL).

`Cc1ccsc1`: the solubility is 4070 µM (≈ 400 µg/mL).

Consider `OCC(CO)(CBr)CBr`, for which the solubility was found to be 145000 µM (≈ 38000 µg/mL). Turning to `OC(c1ccccc1)c1ccc(Cl)cc1` (configuration not stated), the solubility came to 325 µM (≈ 71 µg/mL). Take `CCCCOCCOCCOC(C)=O`: the solubility was 220000 µM (≈ 44900 µg/mL). In the case of `CC(C)=CC=C(C)C`, the solubility is 290 µM (≈ 32 µg/mL). On to `ClC(Cl)C(Cl)C(Cl)Cl`, for which the solubility was determined as 1900 µM (≈ 410 µg/mL). `CNC(=O)Oc1ccccc1C(C)C` gave a solubility of 2070 µM (≈ 400 µg/mL).

Consider `CC(C)(C)c1ccc(O)c(C(C)(C)C)c1`, for which the solubility stood at 170 µM (≈ 35 µg/mL). On to `CC(C)(C)c1cc(C(C)(C)C)c(O)c(C(C)(C)C)c1`, for which the solubility stood at 133 µM (≈ 35 µg/mL).

As to `COc1cccc([N+](=O)[O-])c1`, the solubility came to 3270 µM (≈ 500 µg/mL).

In turn, `OCc1c(Cl)cccc1Cl` registered a solubility of 7910 µM (≈ 1400 µg/mL).

Take `Cc1ccc(O)c([N+](=O)[O-])c1`: the solubility amounted to 4130 µM (≈ 633 µg/mL). Compound `Nc1cccc2c(N)cccc12` came in with a solubility of 2400 µM (≈ 380 µg/mL).

Regarding `CC=C1CC2C=CC1C2` (configuration not stated), the solubility was determined as 74 µM (≈ 8.9 µg/mL). Same read-out and setting: the result for `COc1ccc(N)c([N+](=O)[O-])c1` reads 714 µM (≈ 120 µg/mL); that for `CC(C)CNCC(C)C`, 17000 µM (≈ 2200 µg/mL).

Consider `CCCC=C(C=O)CC`, for which the solubility stood at 4640 µM (≈ 586 µg/mL). Compound `N#CCc1ccccc1` gave a solubility of 854 µM (≈ 100 µg/mL).

On to `CCCCNCCCC`, for which the solubility turned out to be 36400 µM (≈ 4700 µg/mL). In turn, `CN(C)Cc1ccccc1` displayed a solubility of 88800 µM (≈ 12000 µg/mL).

In turn, `CC(C)CN1CCOCC1` came in with a solubility of 195000 µM (≈ 28000 µg/mL). Compound `CC(=O)N(C)c1ccccc1` gave a solubility of 112000 µM (≈ 16700 µg/mL). Take `COC(=O)c1ccccc1C(=O)c1ccccc1`: the solubility is 333 µM (≈ 80 µg/mL).

`O=[N+]([O-])c1c(Cl)cc(Cl)cc1Cl`: the solubility was determined as 27.6 µM (≈ 6.25 µg/mL). Consider `O=CC(Cl)(Cl)Cl`, for which the solubility was found to be 204000 µM (≈ 30000 µg/mL).

Compound `OCc1ccc(Cl)c(Cl)c1` came in with a solubility of 9040 µM (≈ 1600 µg/mL).

In turn, `C=CC(OC(C)=O)OC(C)=O` displayed a solubility of 56900 µM (≈ 9000 µg/mL). Consider `C=CCc1ccc(OC)c(OC)c1`, for which the solubility stood at 2810 µM (≈ 500 µg/mL). With `O=[N+]([O-])c1ccc(Cl)cc1C(F)(F)F`, the solubility is 443 µM (≈ 100 µg/mL). Compound `Nc1ccc(Cl)cc1Cl` had a solubility of 3830 µM (≈ 620 µg/mL). `C=CC(=C)CCC=C(C)C` returned a solubility of 41.1 µM (≈ 5.6 µg/mL). For the compound `O=[N+]([O-])c1cc(Cl)cc(Cl)c1O`, the solubility stood at 81.7 µM (≈ 17 µg/mL). Turning to `O=C(O)C1C(C(=O)O)C2(Cl)C(Cl)=C(Cl)C1(Cl)C2(Cl)Cl` (configuration not stated), the solubility is 9000 µM (≈ 3500 µg/mL). `Oc1cccc(Cl)c1Cl` returned a solubility of 22100 µM (≈ 3600 µg/mL). `O=C(O)c1ccccc1-c1ccccc1C(=O)O`: the solubility was determined as 5200 µM (≈ 1260 µg/mL). For `CCc1cccc(CC)c1`, the solubility stood at 179 µM (≈ 24 µg/mL). On to `CC(C)(OOC(C)(C)c1ccccc1)c1ccccc1`, for which the solubility was determined as 1.7 µM (≈ 0.46 µg/mL).

In the case of `Oc1c(Cl)cc(Cl)c(Cl)c1Cl`, the solubility is 99.2 µM (≈ 23 µg/mL). Still for that read-out and setting: the result for `Cc1cc(Cc2cc(C)cc(C(C)(C)C)c2O)c(O)c(C(C)(C)C)c1` reads 0.0587 µM (≈ 0.02 µg/mL); that for `Cc1cc(C)c(O)c(C)c1`, 8810 µM (≈ 1200 µg/mL); that for `Nc1c(Cl)cc(Cl)cc1Cl`, 204 µM (≈ 40 µg/mL). `N=C(Nc1ccccc1)Nc1ccccc1`: the solubility turned out to be 4730 µM (≈ 1000 µg/mL). Still for that read-out and setting: the result for `CCCCCCCCC#N` reads 503 µM (≈ 70 µg/mL). As to `O=C1CCCCCCCCCCCN1`, the solubility was determined as 1470 µM (≈ 290 µg/mL). As for `N#Cc1ccccc1C#N`, the solubility was 3080 µM (≈ 395 µg/mL).

Take `C=C(C)C(=O)OCCO`: the solubility is 768000 µM (≈ 100000 µg/mL). On to `C=C(C)CCl`, for which the solubility was 15500 µM (≈ 1400 µg/mL). The same measure, in the same setting: with `CC(C)=CCC/C(C)=C/CO` the figure was 1490 µM (≈ 230 µg/mL); with `CNc1cccc(C)c1`, 8910 µM (≈ 1080 µg/mL). As for `CCc1ccccc1[N+](=O)[O-]`, the solubility was determined as 1590 µM (≈ 240 µg/mL). As for `CCC(C)c1cccc(C(C)CC)c1O` (configuration not stated), the solubility was 8.72 µM (≈ 1.8 µg/mL). `Oc1cccc(Br)c1`: the solubility was 133000 µM (≈ 23000 µg/mL). As to `Oc1cc(Cl)ccc1Cl`, the solubility was found to be 12300 µM (≈ 2000 µg/mL).

In turn, `C=C1C2CCC(C2)C1(C)C` (configuration not stated) yielded a solubility of 33.8 µM (≈ 4.6 µg/mL). Same read-out and setting: the result for `Clc1ccccn1` reads 176000 µM (≈ 20000 µg/mL). `COc1ccc(O)cc1` gave a solubility of 322000 µM (≈ 40000 µg/mL).

On to `c1ccc2sc(SSc3nc4ccccc4s3)nc2c1`, for which the solubility was found to be 30.1 µM (≈ 10 µg/mL). In turn, `COc1cccc2ccccc12` returned a solubility of 63.2 µM (≈ 10 µg/mL). As for `CC(=O)Nc1ccccc1O`, the solubility worked out at 5820 µM (≈ 880 µg/mL). Take `Nc1cccc2cccc(N)c12`: the solubility is 5370 µM (≈ 850 µg/mL). In the case of `ClCC(Cl)(Cl)CCl`, the solubility amounted to 2640 µM (≈ 480 µg/mL). On the same count and under the same terms, the result for `Cc1ccc([N+](=O)[O-])cc1O` reads 6530 µM (≈ 1000 µg/mL). Take `Oc1ccc(Cc2ccccc2)cc1`: the solubility is 397 µM (≈ 73.2 µg/mL). In the case of `ClC1CCCCC1`, the solubility was found to be 4220 µM (≈ 500 µg/mL).

(Values after the OPERA property sets (Mansouri et al. 2018).)
